Reference: patent US7141661B2, “Non-steroidal anti-inflammatory drug activated gene with anti-tumorigenic properties” (The United States of America as represented by the …, priority 2000, dated 2006)

Tests used:
Assay type in all cases: cell-based, human
NAG-1 [1] = test: Western blot analysis of secreted NAG-1 protein from HCT-116 cells; details: HCT-116, 100 μM INDO, 36 and 48 hr, no serum
Procedure: The level of secreted NAG-1 was evaluated using Western blot analysis with anti-human-NAG-1 antibody (generously provided by Dr. Paralkar of Pfizer). HCT-116 cells were grown to 60–80% confluency in 10 cm plates followed by 48 hr treatment in the absence of serum with either NSAIDs or TGZ. The media were harvested and concentrated approximately 15-fold using Centriprep 10 concentrators (Amicon). Proteins (30 μg) were separated by 15% SDS-PAGE and transferred for 1 hr onto nitrocellulose membrane (Schleicher & Schuell). The blots were blocked for 1 hr with 5% skim milk in TBS/Tween 0.05%, and probed with anti-NAG-1 antibody (1 μg/ml in TBS-0.2%-Tween20) at […] overnight. After washing, the blots were treated with horseradish peroxidase-conjugated secondary antibody for 1 hr and washed several times. The signal was detected by enhanced chemiluminescence system (AMERSHAM) and autoradiography.
HCT-116 cells were treated with 100 μM INDO in the absence of serum for various times. In FIG. 1B, left panel. 10 μg of total RNA was loaded in each lane. Northern blotting was performed using the NAG-1 probe and re-probed with β-actin probe. The hybridization signals were quantitated using Scion Image software (Scion). Levels of the 1.3 kb NAG-1 transcript were normalized to the levels of β-actin transcripts and represented relative to 0 hr treatment. […] The signal was detected by ECL reagent (AMERSHAM).

NAG-1 [2] = test: Northern blot analysis of NAG-1 mRNA expression in HCT-116 cells; details: HCT-116, 100 μM INDO, 48 hr, no serum
NAG-1 [3] = test: Northern blot NAG-1 induction in U937 leukemia cells; details: INDO treatment, 24 hr
Procedure: NSAID-induced apoptosis is not restricted to colorectal cells, as NSAIDs can induce apoptosis in breast, lung, leukemia, and prostate cell lines. To test for the induction of NAG-1 by NSAIDs in different cell lines, A549 lung epithelial cells, MCF-7 mammary cells, PC-3 prostate cancer cells, and U937 leukemia cell lines were treated with several concentrations of INDO and aspirin. Then, as described above, Northern blot analysis was performed. […] Quiescent cells were grown for 24 hr in the presence of indicated NSAIDs. Total RNAs were isolated and subjected to Northern analysis using NAG-1 and β-actin as probes. The blots contained 10 μg of total RNA from INDO- or Aspirin (Asp)-treated cells with indicated doses. “V” indicates total RNAs from vehicle (0.2% DMSO) treated cells. The results shown are representative of those obtained in two experiments.

HCT-116 cells = test: Apoptosis and cell cycle by PI staining / FACS in HCT-116 cells
Procedure: To determine whether NAG-1 gene expression is associated with NSAID-induced apoptosis or altered cell cycle kinetics, flow cytometric analysis of the distribution of cells at various stages of the cell cycle was performed. Apoptosis and cell cycle kinetics of INDO-treated HCT-116 cells were measured at different time points. HCT-116 cells were treated with INDO, stained with PI, and analyzed by flow cytometry. Seven thousand five hundred cells were examined by flow cytometry by gating on an area versus width dot plot to exclude cell debris and cell aggregates. Apoptosis is represented by the fold increase in sub-G1 population over 0 hr treatment.
The DNA content for NSAIDs, PPARγ ligand, and vehicle treated HCT-116 cells was determined by FACS. Cells were plated at a density of 4×10^5 cells/well in 2 ml of medium in 6 well plates, incubated for 16 h, and then treated with NSAIDs or TGZ in the presence of serum. After treatment, the cells were harvested, washed with PBS, fixed by the slow addition of cold 70% ethanol to a total of 1 ml, and stored overnight at 4° C. The fixed cells were pelleted, washed once with PBS, and stained in 1 ml of 20 μg/ml of propidium iodide (PI), 1 mg/ml RNase in PBS for 20 min. Seven thousand five hundred cells were examined by flow cytometry using Becton Dickinson FACSort equipped with CellQuest software, by gating on an area versus width dot plot to exclude cell debris and cell aggregates. Each cell cycle distribution was analyzed by the McCycle program using one cell cycle parameter. Apoptosis was measured based on the level of sub-diploid DNA contained in cells following treatment with NSAIDs or TGZ using CellQuest software.
Northern analysis was performed using NAG-1 and β-actin as probes. The data represent relative expression of NAG-1 mRNA over the control (1.0). Each NSAID was tested at 3 different concentrations and maximally effective concentration used for apoptosis determination. Apoptosis ratio by PI staining was measured by FACS. […] The data represent relative apoptosis ratio over vehicle treatment by PI staining methods. TACS™ Annexin V-FITC kit was also used to confirm apoptosis.

NAG-1 [4] = test: Western analysis of NAG-1 in stably transfected HCT-116 cells; details: antisense HCT-116 cells, 100 μM, 48 hr
Excerpt: HCT-116 cells were stably transfected with an expression vector containing the full-length NAG-1 coding region in the sense and antisense orientations. The sense cells expressed NAG-1 protein at a level that was 2.0–2.5 fold greater than the vector transfected cells, while the anti-sense cells expressed slightly lower NAG-1 levels compared to vector transfected cells. […] The full-length NAG-1 (sense strand and antisense strand) was cloned into the pCDNA3.1 expression vector and transfected into HCT-116 cells. Each cell was grown under G418 (500 μg/ml) for 2 weeks and treated with either vehicle or INDO (100 μM). After growing for 48 hr, the media was harvested, concentrated, and subjected to Western analysis. Thirty μg of total protein was loaded in each lane, and the arrow indicates the NAG-1 protein band.

For `COc1ccc2c(c1)c(CC(=O)O)c(C)n2C(=O)c1ccc(Cl)cc1` [Indomethacin], the NAG-1 protein expression (NAG-1 [1]) was “marked increase”, the “NAG-1 mRNA expression” value (NAG-1 [2]) was “further increase” and the NAG-1 expression (NAG-1 [3]) was “only a modest increase”. The “Increase in apoptosis (sub-G1 population over 0 hr)” value (HCT-116 cells; HCT-116, 36 hr exposure) was roughly 3 fold, the “Apoptosis (PI Staining), relative apoptosis ratio over vehicle” value (HCT-116 cells; HCT-116, 48 hr in presence of serum, maximally effective concentration, FACS) was 2.9 ± 0.121 and the “Increase in apoptosis (sub-G1 population over 0 hr)” value (HCT-116 cells; HCT-116, 60 hr exposure) was 4.5 fold. For the same molecule, the “Earliest time at which apoptosis was observed” value (HCT-116 cells; HCT-116, presence of serum, TGZ 5 μM) was 36 h, the “Time point at which G1 arrest was seen” value (HCT-116 cells; HCT-116, TGZ 5 μM) was 12 h and the “Expression of NAG-1” value (NAG-1 [4]) was “did not stimulate apoptosis or increase the expression of NAG-1”.
